Values after ≈ are worked out from the molar mass of the structure shown. Like-named read-outs stand apart in the source and are kept apart here. Numbered stars: 1 amine (or outer) side, 2 acyl side, 3 side chain; on linkers, the order of the positions; unused ones are H or OH. Bridge positions count the residues as written; N and C are the ends. Side chains are listed from the residue outwards. Peptide text beside a SMILES is read from it. * marks the point of attachment. C20 diacid = O=C(O)CCCCCCCCCCCCCCCCCCC(=O)*; γGlu = O=C(O)[C@H](CCC(=O)[*:2])N[*:1]; AEEA = NCCOCCOCC(=O)O
Tests used:
[1] = ASSAY (IV) determination of solubility; assay type: physicochemical
Method in brief: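 Polypeptide in water at […] mixed 1:1 with 100 mM buffers of pH 3.0-8.0 (glycylglycine pH 3-5, bistrispropane pH 6-8). Held 18 h at room temperature, then centrifuged; concentration remaining in solution measured by UPLC.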

[2] = target: T1, human amylin 3(a) receptor (human calcitonin receptor + RAMP-3) in BHK570 cells (Homo sapiens, UniProt O60896+P30988); experiment: ASSAY (II)a functional assay, human amylin receptor (CRE luciferase); assay type: cell-based; conditions: for EC50: human amylin receptor functional potency, assay (II), read-out: hAmylin-R funct. EC50
T1 construct: expressed in transfected cells
Method in brief: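 Cells were seeded and cultured overnight, then incubated with standard or sample for 3 h at 37° C in serum-containing medium at pH 7.4. The medium was then swapped for PBS, LucLite was added for 30 min at room temperature, and luminescence was recorded. Cells were BHK with CRE-luc and calcitonin receptor, ± RAMP-3.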

[3] = target: T2, rat amylin receptor (rat calcitonin receptor + rat RAMP 3) (Rattus norvegicus, UniProt P32214+Q9JJ73); experiment: ASSAY (VI) binding to the rat amylin receptor; conditions: for IC50: binding to rat amylin receptor, read-out: rAmylin-R bind IC50
T2 construct: expressed in transfected cells; host or cells: BHK tk'ts 13 (transient, FuGENE 6), membranes
T2 sequence (P32214 25-479 isoform P32214-2 limits assumed): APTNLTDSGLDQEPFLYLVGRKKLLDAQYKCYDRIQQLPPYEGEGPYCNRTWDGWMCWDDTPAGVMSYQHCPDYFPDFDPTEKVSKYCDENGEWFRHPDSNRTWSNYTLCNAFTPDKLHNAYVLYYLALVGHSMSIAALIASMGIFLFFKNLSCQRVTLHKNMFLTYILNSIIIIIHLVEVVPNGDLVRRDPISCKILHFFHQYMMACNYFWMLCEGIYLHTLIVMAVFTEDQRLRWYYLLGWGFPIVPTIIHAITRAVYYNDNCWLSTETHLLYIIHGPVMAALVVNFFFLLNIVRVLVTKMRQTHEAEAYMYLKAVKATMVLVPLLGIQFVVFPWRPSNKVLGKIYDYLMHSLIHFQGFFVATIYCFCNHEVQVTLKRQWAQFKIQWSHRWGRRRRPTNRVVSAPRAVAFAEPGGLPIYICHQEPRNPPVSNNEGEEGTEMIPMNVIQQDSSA
T2 sequence (Q9JJ73 23-147 partner): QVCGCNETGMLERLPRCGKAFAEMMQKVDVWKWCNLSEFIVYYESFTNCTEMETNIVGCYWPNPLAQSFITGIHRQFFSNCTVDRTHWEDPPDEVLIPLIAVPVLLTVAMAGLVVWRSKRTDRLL
Method in brief: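 Binding to the rat amylin receptor was determined with membrane preparations. The receptor was expressed by transiently transfecting BHK tk′ts 13 cells with rat calcitonin receptor, using FuGENE® 6 (Roche) according to the manufacturer's recommendations. Roughly 48 hours later the cells were harvested and their membranes isolated.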

[4] = target: T3, rat calcitonin receptor (Rattus norvegicus, UniProt P32214); experiment: ASSAY (VIII) binding to the rat calcitonin receptor; conditions: Table 7, read-out: rCTR bind IC50
T3 construct: expressed in transfected cells; host or cells: BHK tk'ts 13 (transient, FuGENE 6), membranes
T3 sequence (P32214 25-479 isoform P32214-2 limits assumed): T2 sequence (P32214 25-479 isoform P32214-2 limits assumed)
Method in brief: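 Membranes were prepared from BHK tk′ts 13 cells transiently transfected with rat calcitonin receptor. Cells were grown in DMEM with 10% FBS and harvested approximately 48 hours after transfection.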

[5] = bistrispropane buffer, pH 6.5, read-out: Solubility pH 6.5 Concentration
[6] = bistrispropane buffer, pH 7.5, read-out: Solubility pH 7.5 Concentration
[7] = bistrispropane buffer, pH 6.0, read-out: Solubility pH 6.0 Concentration
[8] = bistrispropane buffer, pH 7.0, read-out: Solubility pH 7.0 Concentration
[9] = bistrispropane buffer, pH 8.0, read-out: Solubility pH 8.0 Concentration
[10] = glycylglycine buffer, pH 3.0, read-out: Solubility pH 3.0 Concentration
[11] = glycylglycine buffer, pH 4.0, read-out: Solubility pH 4.0 Concentration
[12] = glycylglycine buffer, pH 5.0, read-out: Solubility pH 5.0 Concentration
[13] = hCTR funct. EC50 divided by hAmylin-R funct. EC50
[14] = hCTR funct. EC50 over hAmylin-R funct. EC50
[15] = human functional selectivity: hCTR funct. EC50 / hAmylin-R funct. EC50
[16] = Table 7, rat binding selectivity, rCTR IC50 / rAmylin-R IC50
[17] = Table 7a (preferred compounds), rat binding selectivity, rCTR IC50 / rAmylin-R IC50
[18] = ratio of rCTR bind IC50 to rAmylin-R bind IC50

T1 sequence (O60896 24-148): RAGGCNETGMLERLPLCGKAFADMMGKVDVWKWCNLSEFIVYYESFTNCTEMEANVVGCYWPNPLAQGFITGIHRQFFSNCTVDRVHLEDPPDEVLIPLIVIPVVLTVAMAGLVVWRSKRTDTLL
T1 sequence (P30988 25-474): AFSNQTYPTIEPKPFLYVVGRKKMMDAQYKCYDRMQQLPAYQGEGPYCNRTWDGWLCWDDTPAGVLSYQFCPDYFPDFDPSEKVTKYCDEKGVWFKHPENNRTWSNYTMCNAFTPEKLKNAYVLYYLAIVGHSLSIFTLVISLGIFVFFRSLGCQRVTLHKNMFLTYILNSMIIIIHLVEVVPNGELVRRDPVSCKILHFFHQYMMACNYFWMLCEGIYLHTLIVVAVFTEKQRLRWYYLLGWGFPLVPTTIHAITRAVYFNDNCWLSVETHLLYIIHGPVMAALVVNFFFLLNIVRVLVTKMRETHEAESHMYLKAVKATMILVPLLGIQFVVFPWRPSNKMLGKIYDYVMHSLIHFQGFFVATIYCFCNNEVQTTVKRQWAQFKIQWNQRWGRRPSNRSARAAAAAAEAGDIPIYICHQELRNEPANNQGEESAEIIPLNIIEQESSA

solubility at 18 h [1, 5] [µM]	solubility at 18 h [1, 6] [µM]	solubility at 18 h [1, 7] [µM]	solubility at 18 h [1, 8] [µM]	solubility at 18 h [1, 9] [µM]	solubility at 18 h [1, 10] [µM]	solubility at 18 h [1, 11] [µM]	solubility at 18 h [1, 12] [µM]	Ratio hCT/hAmylin funct. [2, 13]	Ratio hCT/hAmylin funct. [2, 14]	EC50 [2] [nM]	Ratio hCT/hAmylin funct. [2, 15]	IC50 ([3]; Table 7) [nM]	Ratio rCT/rAmylin binding [3, 16]	Ratio rCT/rAmylin binding [3, 17]	Ratio rCT/rAmylin binding [3, 18]	IC50 [4] [nM]	SMILES
≥ 200	≥ 200	≥ 200	≥ 200	≥ 200	≥ 200	≥ 200	≥ 200	17.4	17.4	0.038	17.4	0.069	81.7	81.7	81.7	5.63	CC[C@H](C)[C@H](NC(=O)[C@H](C)NC(=O)CNC(=O)[C@H](Cc1ccccc1)NC(=O)[C@H](CC(N)=O)NC(=O)[C@@H]1CCCN1C(=O)[C@H](CO)NC(=O)[C@H](CO)NC(=O)[C@H](Cc1c[nH]cn1)NC(=O)[C@H](CCCNC(=N)N)NC(=O)[C@H](CC(C)C)NC(=O)[C@H](Cc1ccccc1)NC(=O)[C@H](CC(N)=O)NC(=O)[C@H](C)NC(=O)[C@H](CC(C)C)NC(=O)[C@H](CCCNC(=N)N)NC(=O)[C@H](CCC(N)=O)NC(=O)[C@@H](NC(=O)[C@H](C)NC(=O)[C@@H]1CSSC[C@H](NC(=O)[C@@H](N)CCCCNC(=O)COCCOCCNC(=O)CC[C@H](NC(=O)CCCCCCCCCCCCCCCCCCC(=O)O)C(=O)O)C(=O)N[C@@H](CC(N)=O)C(=O)N[C@@H]([C@@H](C)O)C(=O)N[C@@H](C)C(=O)N[C@@H]([C@@H](C)O)C(=O)N1)[C@@H](C)O)C(=O)N1CCC[C@H]1C(=O)N[C@@H](CO)C(=O)N[C@@H](CO)C(=O)N[C@H](C(=O)N[C@@H](CC(N)=O)C(=O)N[C@H](C(=O)NCC(=O)N1CCC[C@H]1C(=O)N[C@@H](CC(N)=O)C(=O)N[C@H](C(=O)N[C@@H](Cc1ccc(O)cc1)C(N)=O)[C@@H](C)O)C(C)C)[C@@H](C)O [Example 50]
≥ 200	87 (≈ 397 µg/mL)	≥ 200	≥ 200	39 (≈ 178 µg/mL)	≥ 200	≥ 200	≥ 200	24.0	24.0	0.198	24.0	0.369	53.3	53.3	53.3	19.7	CC[C@H](C)[C@H](NC(=O)[C@H](C)NC(=O)CNC(=O)[C@H](Cc1ccccc1)NC(=O)[C@H](CC(N)=O)NC(=O)[C@@H]1CCCN1C(=O)[C@H](CO)NC(=O)[C@H](CO)NC(=O)[C@H](Cc1c[nH]cn1)NC(=O)[C@H](CCCNC(=N)N)NC(=O)[C@H](CC(C)C)NC(=O)[C@H](Cc1ccccc1)NC(=O)[C@H](CC(N)=O)NC(=O)[C@H](C)NC(=O)[C@H](CC(C)C)NC(=O)[C@H](CCCNC(=N)N)NC(=O)[C@H](CCC(N)=O)NC(=O)[C@@H](NC(=O)[C@H](C)NC(=O)[C@@H]1CSSC[C@H](NC(=O)[C@H](CCCNC(=N)N)NC(=O)[C@@H](N)CCCCNC(=O)CC[C@H](NC(=O)CCCCCCCCCCCCCCCCCCC(=O)O)C(=O)O)C(=O)N[C@@H](CC(N)=O)C(=O)N[C@@H]([C@@H](C)O)C(=O)N[C@@H](C)C(=O)N[C@@H]([C@@H](C)O)C(=O)N1)[C@@H](C)O)C(=O)N1CCC[C@H]1C(=O)N[C@@H](CO)C(=O)N[C@@H](CO)C(=O)N[C@H](C(=O)N[C@@H](CC(N)=O)C(=O)N[C@H](C(=O)NCC(=O)N[C@@H](CO)C(=O)N[C@@H](Cc1c[nH]cn1)C(=O)N[C@H](C(=O)N[C@@H](Cc1ccc(O)cc1)C(N)=O)[C@@H](C)O)C(C)C)[C@@H](C)O [Example 44] (H-K([γGlu-C20 diacid])RCNTATCATQRLANFLRHSSPNFGAIPSSTNVGSHTY-NH2; disulfide 3-8)
≥ 200	≥ 200	≥ 200	≥ 200	≥ 200	≥ 200	≥ 200	≥ 200	138.7	138.7	–	138.7	3.48	35.6	35.6	35.6	124	CC[C@H](C)[C@H](NC(=O)[C@H](C)NC(=O)CNC(=O)[C@H](Cc1ccccc1)NC(=O)[C@H](CC(N)=O)NC(=O)[C@@H]1CCCN1C(=O)[C@H](CO)NC(=O)[C@H](CO)NC(=O)[C@H](Cc1c[nH]cn1)NC(=O)[C@H](CCCNC(=N)N)NC(=O)[C@H](CC(C)C)NC(=O)[C@H](Cc1ccccc1)NC(=O)[C@H](CCCNC(=N)N)NC(=O)[C@H](C)NC(=O)[C@H](CC(C)C)NC(=O)[C@H](CCCNC(=N)N)NC(=O)[C@H](CCC(N)=O)NC(=O)[C@@H](NC(=O)[C@H](C)NC(=O)[C@@H]1CSSC[C@H](NC(=O)[C@@H](N)CCCCNC(=O)CC[C@H](NC(=O)CCCCCCCCCCCCCCCCCCC(=O)O)C(=O)O)C(=O)N[C@@H](CC(N)=O)C(=O)N[C@@H]([C@@H](C)O)C(=O)N[C@@H](C)C(=O)N[C@@H]([C@@H](C)O)C(=O)N1)[C@@H](C)O)C(=O)N1CCC[C@H]1C(=O)N[C@@H](CO)C(=O)N[C@@H](CO)C(=O)N[C@H](C(=O)N1CCC[C@H]1C(=O)N[C@H](C(=O)NCC(=O)N[C@@H](CO)C(=O)N[C@@H](CC(N)=O)C(=O)N[C@H](C(=O)N[C@@H](Cc1ccc(O)cc1)C(N)=O)[C@@H](C)O)C(C)C)[C@@H](C)O [Example 63] (H-K([γGlu-C20 diacid])CNTATCATQRLARFLRHSSPNFGAIPSSTPVGSNTY-NH2; disulfide 2-7 (inferred); N-terminus assumed)
≥ 200	≥ 200	≥ 200	≥ 200	≥ 200	≥ 200	≥ 200	≥ 200	9.8	–	–	9.8	0.084	130.1	130.1	130.1	10.9	CC[C@H](C)[C@H](NC(=O)[C@H](C)NC(=O)CNC(=O)[C@H](Cc1ccccc1)NC(=O)[C@H](CC(N)=O)NC(=O)[C@@H]1CCCN1C(=O)[C@H](CO)NC(=O)[C@H](CO)NC(=O)[C@H](Cc1c[nH]cn1)NC(=O)[C@H](CCCNC(=N)N)NC(=O)[C@H](CC(C)C)NC(=O)[C@H](Cc1ccccc1)NC(=O)[C@H](CC(N)=O)NC(=O)[C@H](C)NC(=O)[C@H](CC(C)C)NC(=O)[C@H](CCCNC(=N)N)NC(=O)[C@H](CCC(N)=O)NC(=O)[C@@H](NC(=O)[C@H](C)NC(=O)[C@@H]1CSSC[C@H](NC(=O)[C@@H](N)CCCCNC(=O)COCCOCCNC(=O)CC[C@H](NC(=O)CCCCCCCCCCCCCCCCCCC(=O)O)C(=O)O)C(=O)N[C@@H](CC(N)=O)C(=O)N[C@@H]([C@@H](C)O)C(=O)N[C@@H](C)C(=O)N[C@@H]([C@@H](C)O)C(=O)N1)[C@@H](C)O)C(=O)N1CCC[C@H]1C(=O)N1CCC[C@H]1C(=O)N[C@@H](CO)C(=O)N[C@H](C(=O)N1CCC[C@H]1C(=O)N[C@H](C(=O)NCC(=O)N[C@@H](CO)C(=O)N[C@@H](CC(N)=O)C(=O)N[C@H](C(=O)N[C@@H](Cc1ccc(O)cc1)C(N)=O)[C@@H](C)O)C(C)C)[C@@H](C)O [Example 53] (H-K([AEEA-γGlu-C20 diacid])CNTATCATQRLANFLRHSSPNFGAIPPSTPVGSNTY-NH2; disulfide 2-7; N-terminus assumed)

From patent publication US9023789B2, “Amylin analogs and pharmaceutical compositions thereof” (Novo Nordisk A/S, priority 2012, dated 2015)
